Assay [1] concerns the target Tyrosine-protein kinase Fer (Homo sapiens) (UniProt P16591). As to the kind of experiment: Selectivity interaction (KinomeScan (DiscoverX)) EUB0001619a FER. The settings on record: at 1 µM.
For assay [2], the target named is T1, Serine/threonine-protein kinase Nek9 (Homo sapiens) (UniProt Q8TD19).
T1 sequence (whole entry): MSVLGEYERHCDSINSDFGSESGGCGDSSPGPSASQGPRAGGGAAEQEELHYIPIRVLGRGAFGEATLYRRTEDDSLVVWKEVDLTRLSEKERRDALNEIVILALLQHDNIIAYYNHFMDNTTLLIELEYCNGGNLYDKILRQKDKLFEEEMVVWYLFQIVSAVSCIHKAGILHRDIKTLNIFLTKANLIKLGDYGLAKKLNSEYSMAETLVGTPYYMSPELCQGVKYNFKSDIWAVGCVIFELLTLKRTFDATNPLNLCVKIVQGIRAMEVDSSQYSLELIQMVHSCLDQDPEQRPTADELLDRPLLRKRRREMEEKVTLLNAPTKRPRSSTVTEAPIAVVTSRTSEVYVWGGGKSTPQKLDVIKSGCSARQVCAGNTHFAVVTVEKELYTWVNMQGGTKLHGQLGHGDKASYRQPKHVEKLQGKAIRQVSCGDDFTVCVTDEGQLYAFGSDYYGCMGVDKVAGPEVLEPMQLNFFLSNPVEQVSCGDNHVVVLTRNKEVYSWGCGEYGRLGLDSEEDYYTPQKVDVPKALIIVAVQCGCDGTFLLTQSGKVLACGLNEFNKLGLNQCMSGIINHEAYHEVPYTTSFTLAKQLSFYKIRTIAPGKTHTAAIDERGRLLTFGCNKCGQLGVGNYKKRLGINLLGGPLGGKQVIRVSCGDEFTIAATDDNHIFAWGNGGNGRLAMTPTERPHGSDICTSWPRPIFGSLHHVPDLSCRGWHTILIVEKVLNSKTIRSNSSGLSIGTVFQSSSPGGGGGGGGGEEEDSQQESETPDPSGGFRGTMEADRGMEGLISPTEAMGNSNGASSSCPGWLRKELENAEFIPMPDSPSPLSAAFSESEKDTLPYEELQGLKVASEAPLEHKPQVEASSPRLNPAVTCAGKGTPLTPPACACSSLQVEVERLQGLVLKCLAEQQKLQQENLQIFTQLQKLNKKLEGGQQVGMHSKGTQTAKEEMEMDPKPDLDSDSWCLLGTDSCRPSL
In words: Selectivity interaction (SelectScreen profiling (Invitrogen)) EUB0000607a NEK9. The settings on record: at 2 µM.

Assay [3] addresses Tyrosine-protein kinase Fer (Homo sapiens) (UniProt P16591). As to the kind of experiment: Selectivity interaction (KinaseProfiler screening (Millipore)) EUB0000601a FER. The note with it: at 3 µM.
Assay [4] concerns the target Mitogen-activated protein kinase kinase kinase 11 (Homo sapiens) (UniProt Q16584). As to the kind of experiment: Selectivity interaction (ActivX KiNativ screen (kinase selectivity in THP-1 cell lysates)) EUB0000639a MAP3K11. In kind it is subcellular. The settings on record: lysate, at 0.04 µM.
The target in assay [5] is Cyclin-dependent kinase 2 (Homo sapiens, UniProt P24941). As to the kind of experiment: Selectivity interaction (ActivX KiNativ screen (kinase selectivity in THP-1 cell lysates)) EUB0000639a CDK2. It counts as subcellular. The note with it: lysate, at 1 µM.
For assay [6], the target named is Serine/threonine-protein kinase PRP4 homolog (Homo sapiens) (UniProt Q13523). As to the kind of experiment: Selectivity interaction (ActivX KiNativ screen (kinase selectivity in THP-1 cell lysates)) EUB0000639a PRPF4. In kind it is subcellular. The settings on record: lysate, at 1 µM.
Chain of Serine/threonine-protein kinase PRP4 homolog (Homo sapiens) (Q13523 whole entry): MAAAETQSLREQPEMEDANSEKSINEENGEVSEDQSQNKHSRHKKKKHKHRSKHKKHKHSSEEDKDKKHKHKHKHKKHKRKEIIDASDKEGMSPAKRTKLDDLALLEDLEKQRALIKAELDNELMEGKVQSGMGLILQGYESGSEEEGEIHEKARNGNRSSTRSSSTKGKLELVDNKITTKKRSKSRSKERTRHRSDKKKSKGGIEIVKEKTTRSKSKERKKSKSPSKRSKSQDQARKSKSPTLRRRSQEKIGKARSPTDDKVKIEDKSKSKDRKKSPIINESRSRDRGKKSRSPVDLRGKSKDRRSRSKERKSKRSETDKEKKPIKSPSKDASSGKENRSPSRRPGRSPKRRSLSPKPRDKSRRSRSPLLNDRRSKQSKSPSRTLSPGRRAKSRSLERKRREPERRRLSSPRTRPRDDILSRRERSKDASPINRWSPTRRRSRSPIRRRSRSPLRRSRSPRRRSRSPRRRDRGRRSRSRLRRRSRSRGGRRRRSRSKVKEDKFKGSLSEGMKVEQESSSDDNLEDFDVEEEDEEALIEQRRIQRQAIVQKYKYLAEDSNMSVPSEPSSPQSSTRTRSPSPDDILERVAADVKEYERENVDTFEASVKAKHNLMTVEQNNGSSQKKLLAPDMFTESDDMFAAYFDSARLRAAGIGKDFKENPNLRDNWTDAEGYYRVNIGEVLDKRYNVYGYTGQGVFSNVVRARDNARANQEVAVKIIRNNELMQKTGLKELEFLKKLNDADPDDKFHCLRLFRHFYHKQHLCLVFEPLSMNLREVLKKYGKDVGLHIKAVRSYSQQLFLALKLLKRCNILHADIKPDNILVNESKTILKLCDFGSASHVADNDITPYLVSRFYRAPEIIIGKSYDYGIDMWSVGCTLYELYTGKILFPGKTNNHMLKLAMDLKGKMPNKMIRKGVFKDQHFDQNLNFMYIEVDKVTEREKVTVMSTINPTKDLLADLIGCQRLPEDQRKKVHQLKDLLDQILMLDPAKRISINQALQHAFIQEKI
Assay [7] concerns the target T2, Receptor-interacting serine/threonine-protein kinase 1 (Homo sapiens) (UniProt Q13546).
T2 sequence (whole entry): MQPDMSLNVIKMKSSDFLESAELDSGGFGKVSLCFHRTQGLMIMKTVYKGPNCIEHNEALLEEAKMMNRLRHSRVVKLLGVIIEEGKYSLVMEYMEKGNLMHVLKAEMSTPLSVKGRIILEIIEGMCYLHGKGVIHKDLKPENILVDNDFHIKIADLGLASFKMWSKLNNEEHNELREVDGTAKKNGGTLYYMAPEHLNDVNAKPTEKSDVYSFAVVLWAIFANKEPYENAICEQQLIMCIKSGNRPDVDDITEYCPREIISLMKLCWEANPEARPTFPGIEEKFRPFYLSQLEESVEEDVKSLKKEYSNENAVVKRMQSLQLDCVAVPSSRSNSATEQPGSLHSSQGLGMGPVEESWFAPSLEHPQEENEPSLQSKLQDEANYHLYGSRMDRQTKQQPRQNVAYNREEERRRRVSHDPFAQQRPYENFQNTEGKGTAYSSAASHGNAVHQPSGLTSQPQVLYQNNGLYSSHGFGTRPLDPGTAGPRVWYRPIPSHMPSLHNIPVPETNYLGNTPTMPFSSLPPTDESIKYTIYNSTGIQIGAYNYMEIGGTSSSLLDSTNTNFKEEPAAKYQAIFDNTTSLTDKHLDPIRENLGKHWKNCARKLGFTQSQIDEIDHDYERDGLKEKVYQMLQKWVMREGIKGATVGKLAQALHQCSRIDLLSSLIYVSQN
As to the kind of experiment: Selectivity interaction (KinomeScan (DiscoverX)) EUB0000092b RIPK1. The note with it: at 10 µM.

Assay [8] addresses Ribosomal protein S6 kinase beta-2 (Homo sapiens) (UniProt Q9UBS0). In words: Selectivity interaction (Kinase panel (KiNativ target engagement assay in Jurkat cells)) EUB0001635a RPS6KB2. It counts as cell-based. The note with it: Selectivity number of off-targets 0.0, Selectivity number of targets 233.0, Source Knowledge https://www.sciencedirect.com/science/article/pii/S2451945619300674?via%3Dihub, at 1 µM.

Chain of Tyrosine-protein kinase Fer (Homo sapiens) (P16591 whole entry, looked up): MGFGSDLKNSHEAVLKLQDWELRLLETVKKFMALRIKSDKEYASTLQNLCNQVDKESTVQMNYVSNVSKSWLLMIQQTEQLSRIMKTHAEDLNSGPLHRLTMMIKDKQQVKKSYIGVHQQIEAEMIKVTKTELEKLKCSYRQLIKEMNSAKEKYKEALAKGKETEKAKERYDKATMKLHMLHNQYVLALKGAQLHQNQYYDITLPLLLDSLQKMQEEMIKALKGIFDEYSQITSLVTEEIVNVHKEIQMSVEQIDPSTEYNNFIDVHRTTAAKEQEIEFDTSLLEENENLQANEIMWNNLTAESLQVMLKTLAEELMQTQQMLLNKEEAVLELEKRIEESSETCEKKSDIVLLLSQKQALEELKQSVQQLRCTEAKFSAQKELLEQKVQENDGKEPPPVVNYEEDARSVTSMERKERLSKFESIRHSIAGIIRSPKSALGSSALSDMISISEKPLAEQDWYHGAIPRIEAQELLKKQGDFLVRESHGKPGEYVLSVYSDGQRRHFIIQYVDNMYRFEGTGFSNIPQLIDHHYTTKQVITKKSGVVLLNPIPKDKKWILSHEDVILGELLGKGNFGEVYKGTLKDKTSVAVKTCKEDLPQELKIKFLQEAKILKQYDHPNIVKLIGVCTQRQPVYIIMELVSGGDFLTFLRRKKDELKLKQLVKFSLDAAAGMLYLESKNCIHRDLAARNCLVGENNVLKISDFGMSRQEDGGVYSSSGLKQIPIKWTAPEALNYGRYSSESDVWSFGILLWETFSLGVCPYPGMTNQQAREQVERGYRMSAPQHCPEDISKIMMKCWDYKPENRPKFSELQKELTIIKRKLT
Chain of Mitogen-activated protein kinase kinase kinase 11 (Homo sapiens) (Q16584 whole entry, looked up): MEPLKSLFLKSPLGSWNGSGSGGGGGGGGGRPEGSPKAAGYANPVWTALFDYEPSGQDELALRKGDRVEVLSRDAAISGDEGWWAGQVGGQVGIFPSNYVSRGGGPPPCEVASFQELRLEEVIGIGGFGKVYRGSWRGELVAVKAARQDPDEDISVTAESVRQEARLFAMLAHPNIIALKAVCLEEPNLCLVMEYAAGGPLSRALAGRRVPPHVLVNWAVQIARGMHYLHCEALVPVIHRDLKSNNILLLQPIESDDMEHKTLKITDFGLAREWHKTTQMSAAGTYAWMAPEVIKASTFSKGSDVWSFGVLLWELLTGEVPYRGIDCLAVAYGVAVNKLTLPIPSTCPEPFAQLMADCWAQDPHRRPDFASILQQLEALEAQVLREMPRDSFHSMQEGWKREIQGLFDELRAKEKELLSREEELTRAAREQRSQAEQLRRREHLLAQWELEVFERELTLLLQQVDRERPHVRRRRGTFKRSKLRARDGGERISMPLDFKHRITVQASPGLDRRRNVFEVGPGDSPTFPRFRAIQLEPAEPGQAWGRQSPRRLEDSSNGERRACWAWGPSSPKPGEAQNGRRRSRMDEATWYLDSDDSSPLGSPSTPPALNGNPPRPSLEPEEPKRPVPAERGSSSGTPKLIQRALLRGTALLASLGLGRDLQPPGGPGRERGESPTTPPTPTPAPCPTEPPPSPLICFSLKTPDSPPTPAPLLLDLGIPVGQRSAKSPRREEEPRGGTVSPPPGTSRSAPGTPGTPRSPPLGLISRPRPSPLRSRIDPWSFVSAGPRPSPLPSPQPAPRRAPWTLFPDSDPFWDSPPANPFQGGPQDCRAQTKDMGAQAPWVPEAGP
Chain of Ribosomal protein S6 kinase beta-2 (Homo sapiens) (Q9UBS0 whole entry): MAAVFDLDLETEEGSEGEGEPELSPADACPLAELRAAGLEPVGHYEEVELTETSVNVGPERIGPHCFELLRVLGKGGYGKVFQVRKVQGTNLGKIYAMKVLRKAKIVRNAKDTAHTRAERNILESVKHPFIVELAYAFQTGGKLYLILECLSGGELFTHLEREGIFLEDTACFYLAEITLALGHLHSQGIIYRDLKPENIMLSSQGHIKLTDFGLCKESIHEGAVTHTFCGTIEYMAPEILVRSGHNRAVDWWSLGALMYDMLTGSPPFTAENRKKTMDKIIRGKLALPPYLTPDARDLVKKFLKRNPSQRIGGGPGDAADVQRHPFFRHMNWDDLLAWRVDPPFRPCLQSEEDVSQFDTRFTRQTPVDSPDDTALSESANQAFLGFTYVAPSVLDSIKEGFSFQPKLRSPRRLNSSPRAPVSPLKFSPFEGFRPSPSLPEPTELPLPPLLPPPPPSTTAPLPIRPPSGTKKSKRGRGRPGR

Consider `N#Cc1cccc(-c2c[nH]c3ncnc(N4CCOCC4)c23)c1`, for which the % of control in assay [1] was found to be 84%.

For the compound `CNC(=O)Nc1ccc(-c2nc(N3CC4CCC(C3)O4)c3cnn(C4CCC5(CC4)OCCO5)c3n2)cc1`, the % of inhibition in assay [2] was -2%. Take `CCc1cc(Nc2nccc(-c3c(-c4ccc(OC)c(C(=O)Nc5c(F)cccc5F)c4)nc4ccccn34)n2)c(OC)cc1N1CCC(N2CCN(S(C)(=O)=O)CC2)CC1`: in assay [3], the % of inhibition was 93%. With `CC[C@@H]1[C@H](F)C(=O)N[C@@H]1COc1nccc2cc(C(N)=O)c(OC)cc12` [ZIMLOVISERTIB], the % of inhibition in assay [4] is -8.9%; in assay [5] it was -10.5%; in assay [6] it was 64.7%.

On to `CCC(=O)N1CCN(c2ccc(-n3c(=O)ccc4cnc5ccc(-c6cnc7ccccc7c6)cc5c43)cc2C(F)(F)F)CC1`, for which the % of control in assay [7] is 1.9%. For the compound `C=CC(=O)Nc1ccc(C(=O)Nc2[nH]nc3c2CN(C(=O)N[C@H](CN(C)C)c2ccccc2)C3(C)C)cc1`, the % of engagement in assay [8] is -8.9%.

These data come from ChEMBL document CHEMBL5465560, “Selectivity Literature for EUbOPEN Chemogenomic Library” (2024).
